We go through nine compounds from US10500274B2, “Methods for reducing viral load in HIV-1 infected patients” (CytoDyn Inc., priority 2008, dated 2019).

Data set [1] deals with HIV-1JR-FL envelope-mediated membrane fusion. Briefly: microbe, parasite or virus in culture. It counts as cell-based. Details: CI90: unit not given beside the values.
Data set [2] concerns reporter viruses pseudotyped with HIV-1JR-FL envelope (U87-CD4-CCR5 cells). Briefly: microbe, parasite or virus in culture. It counts as cell-based. The following applies: for IC50 / IC90: Human immunodeficiency virus 1, U87/CD4/CCR5.
The subject of data set [3] is reporter viruses pseudotyped with HIV-1SF162 envelope (U87-CD4-CCR5 cells). Briefly: HIV-1 pseudovirus assay, SF162 envelope. To be noted: Human immunodeficiency virus 1, U87/CD4/CCR5. It counts as cell-based. An excerpt:
A self-inactivating (SIN) vector was derived from the pNL4-3ΔEnv-luciferase vector (Dragic et al. 1996) by deleting 507 basepairs in the U3 region of the 3′ long terminal repeat (LTR) so as to remove the TATA box and transcription factor binding sites. The human cytomegalovirus promoter was inserted upstream of the luciferase (luc) gene to enable expression of luciferase following integration.
Reporter viruses pseudotyped with HIV-1JR-FL or HIV-15F162 envelopes were generated by cotransfection of 293T cells with the SIN vector and the appropriate pcDNA env-expressing vector as previously described (Dragic et al. 1996). U87-CD4-CCR5 cells (8,000/well; NIH AIDS Research and Reference Reagent Program) were infected with 125-375 pg of HIV-L pseudoviruses in 384-well plates in the presence or absence of inhibitor(s). Cultures were incubated for 72 h at 37° C. in DMEM containing 10% fetal bovine serum, […], 0.3 mg/mL geneticin, antibiotics, and 0.5% DMSO. Luciferase activity (relative light units or RLU) was measured using BrightGlo reagent (Promega, Madison, Wis.) according to the manufacturer's instructions.
Experimental design and data analysis were based on the combination index (CI) method (Chou et al. 1991; Chou et al. 1984). […] The mutually exclusive CI formula was used for combinations of CCR5 inhibitors, while the mutually non-exclusive formula was utilized for combinations of inhibitors to distinct targets (Chou et al. 1991). Each test was conducted 4-12 times. Synergy, additivity and antagonism are indicated by CI<1, CI=1 and CI>1, respectively.
In the Bonferroni correction, P=α/n, where n is the number of comparisons. Twenty-two synergy comparisons (11 compounds×2 CI values) were made based on data generated in the membrane fusion assay, resulting in a corrected P value of 0.0023.

Another data set relates to HIV-1. To be noted: dose-dependent, treatment period of 10-14 days; cited from earlier work.
The target in another data set is CCR5 (Homo sapiens, UniProt P51681). To be noted: cited from earlier work.
Data set [4] concerns HIV-1 Env-mediated fusion (HeLa-EnvJRFL with CEM NKR-CCR5 cells). Briefly: HIV-1 RET cell-cell fusion assay, combination testing (Part II). The following applies: PRO 140 in combination with the labelled inhibitor, 1:1 molar ratio.
Protocol: Serial dilutions of small molecules were conducted in DMSO. Subsequent dilutions were conducted in medium to achieve a final DMSO concentration in the assay of 0.5%. Peptides and mAbs were diluted in PBS in the absence of DMSO.
Briefly, fluorescein octadecyl ester (F18; Molecular Probes, Eugene, Oreg.; 5 mg/ml in ethanol), was diluted 1:800 in DMEM labeling medium (DMEM; Invitrogen, Carlsbad, Calif.) with 10% fetal bovine serum (FBS; HyClone, Logan, Utah) and adjusted to an A506 of 0.34±10%. […] Both dyes were further diluted 2-fold by addition to cells in T75-cm^2 flasks. HeLa-EnvJRFL and CEM NKR-CCR5 cells were incubated overnight in F18- and R18-containing culture medium, respectively. […] The plates were then read on a fluorescence plate reader (Victor^2, Perkin Elmer, Boston, Mass.) using the excitation/emission filter combinations shown in Table 6a. […]
IC50 values were generated for all combinations as described above. Combination Index (CI) and Dose Reduction (DR) values were calculated according to the following formulas:
Combinations with CI<1 are determined to be synergistic, whereas combinations with CI>1 are determined to be antagonistic. […]
In this assay, effector cells are labeled with the F18 dye and target cells with the R18 dye. […] Drug susceptibility is measured by adding serial concentrations of drugs to target cells prior to addition of effector cells. […]
Where [5] appears, read: Human immunodeficiency virus 1, 1st inhibitor alone.

Read-outs that look alike come from different tables or passages of the source.

Sequence of CCR5 (P51681 whole entry, the tested form may be a part): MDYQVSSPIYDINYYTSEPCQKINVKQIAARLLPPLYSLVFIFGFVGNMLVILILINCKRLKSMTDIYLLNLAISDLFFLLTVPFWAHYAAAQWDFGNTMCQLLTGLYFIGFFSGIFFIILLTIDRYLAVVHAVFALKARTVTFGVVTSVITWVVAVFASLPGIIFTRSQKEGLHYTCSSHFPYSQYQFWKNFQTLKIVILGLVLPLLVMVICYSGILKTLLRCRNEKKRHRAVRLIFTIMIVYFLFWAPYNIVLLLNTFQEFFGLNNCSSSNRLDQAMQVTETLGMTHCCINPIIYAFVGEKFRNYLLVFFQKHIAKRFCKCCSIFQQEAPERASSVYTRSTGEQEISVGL

`COc1ccnc2[nH]cc(C(=O)C(=O)N3CCN(C(=O)c4ccccc4)C[C@H]3C)c12` [BMS-378806, (R)—N-(benzoyl)-3-methyl-N′-[(4-methoxy-7-azaindol-3-yl)-oxoacetyl]-piperazine]: the IC50 stood at 5.2 nM in data set [1] (setting [5]), 1.2 nM in data set [2] and 0.03 nM in data set [3]. In addition, the IC90 in data set [1] (setting [5]) is 20 nM; in data set [2] it was 11 nM; in data set [3], 0.42 nM.

In the case of `Cc1cn([C@H]2C[C@H](N=[N+]=[N-])[C@@H](CO)O2)c(=O)[nH]c1=O` [zidovudine], the IC50 in data set [2] was 140 nM; in data set [3], 86 nM. Further, the IC90 in data set [2] is 1900 nM; in data set [3], 2100 nM.

Take `Cc1nnc(C(C)C)n1C1CC2CCC(C1)N2CC[C@H](NC(=O)C1CCC(F)(F)CC1)c1ccccc1` (stereo partly drawn) [UK-427,857]: the IC50 in data set [1] (setting [5]) is 5.3 nM; in data set [1] (Human immunodeficiency virus 1, read-out: IC50 of the combination, UK-427,857 with PRO 140, 1:1 fixed molar ratio, total concentration, FIG. 15A), 2.1 nM. Also, the IC90 in data set [1] (setting [5]) stood at 27 nM; in data set [1] (Human immunodeficiency virus 1, inhibitor alone, experiment depicted in FIG. 15A), 21 nM; in data set [1] (Human immunodeficiency virus 1, inhibitor alone, experiment depicted in FIG. 15B) it was 59 nM; in data set [1] (Human immunodeficiency virus 1, read-out: IC90 of the combination, UK-427,857 with PRO 140, 1:1 fixed molar ratio, FIG. 15A) it was 4.6 nM. The same compound came in with a CI90 in data set [1] (UK-427,857 with PRO 140 1:1, experiment depicted in FIG. 15A) of 0.32.

As for `CCO/N=C(\c1ccc(Br)cc1)C1CCN(C2(C)CCN(C(=O)c3c(C)cc[n+]([O-])c3C)CC2)CC1` [SCH-C], in the data set on HIV-1, the “mean reduction in HIV-1 RNA levels” value is approximately 1 log10.

Consider `CCCCOCCOc1ccc(-c2ccc3c(c2)/C=C(/C(=O)Nc2ccc([S+]([O-])Cc4cncn4CCC)cc2)CCCN3CC(C)C)cc1` (stereo not drawn) [TAK-652], for which, on CCR5 (Baba et al., 2005), the “anti-HIV-1 activity in vitro” value is given as “nanomolar range” and the oral bioavailability entry is given as “orally bioavailable”. The tolerability entry on CCR5 (TAK-779: Iizawa et al., 2003, TAK-652: single oral dose, healthy male volunteers) is “safe and well tolerated”.

Regarding “RANTES: CC-chemokine, natural peptide ligand of CCR5, purchased from R&D Systems”, in data set [1] (in combination with PRO 140), the “CI values (50% and 90% inhibition)” value was “Similarly potent synergy”. Further, the CI50 entry in data set [1] (labelled 1st inhibitor with 2nd inhibitor UK-427,857, equimolar) is listed as “Similarly potent synergy”. Besides, the “inhibition of HIV-1 pseudovirus entry (in words)” value in data set [2] (inhibitor alone) is reported as “Neither TAK-779 nor RANTES mediated consistent, high-level inhibition”. For the same compound, the “Mean CT (Combination Index at IC50 value)” value in data set [4] worked out at 0.59 ± 0.08.

`COC[C@@H](c1ccc(C(F)(F)F)cc1)N1CCN(C2(C)CCN(C(=O)c3c(C)ncnc3C)CC2)C[C@@H]1C` [SCH-D, 1-[(4,6-dimethyl-5-pyrimidinyl)carbonyl]-4-[4-[2-methoxy-1(R)-4-(trifluoromethyl)phenyl]ethyl-3(S)-methyl-1-piperazinyl]-4-methylpiperidine]: in data set [1] (SCH-D with UK-427,857 1:1, experiment depicted in FIG. 15B), the CI90 is on record as 0.73. In data set [1] (SCH-D with UK-427,857, 1:1 fixed molar ratio, FIG. 15B, read-out: IC90 of the combination), the IC90 was determined as 31 nM. In addition, the “mean reduction in HIV-1 RNA levels” value in the data set with HIV-1 is recorded as approximately 1 log10.

Turning to `Cc1ccnc2c1NC(=O)c1cccnc1N2C1CC1` [nevirapine], in data set [2], the IC50 amounted to 30 nM and the IC90 amounted to 310 nM. Besides, in data set [3], the IC50 amounted to 42 nM and the IC90 stood at 280 nM.

Take `CCCCN1C(=O)[C@@H]([C@H](O)C2CCCCC2)NC(=O)C12CCN(Cc1ccc(Oc3ccc(C(=O)O)cc3)cc1)CC2` [GW873140]: the “mean reduction in HIV-1 RNA levels” value in the data set on HIV-1 was approximately 1 log10.
